These compounds were tested against T1, Gonadotropin-releasing hormone receptor (Homo sapiens, UniProt P30968) (assay: Binding affinity towards human gonadotropin-releasing hormone receptor (GNRHR) using GnRH peptide as radioligand).
T1 sequence (P30968 whole entry): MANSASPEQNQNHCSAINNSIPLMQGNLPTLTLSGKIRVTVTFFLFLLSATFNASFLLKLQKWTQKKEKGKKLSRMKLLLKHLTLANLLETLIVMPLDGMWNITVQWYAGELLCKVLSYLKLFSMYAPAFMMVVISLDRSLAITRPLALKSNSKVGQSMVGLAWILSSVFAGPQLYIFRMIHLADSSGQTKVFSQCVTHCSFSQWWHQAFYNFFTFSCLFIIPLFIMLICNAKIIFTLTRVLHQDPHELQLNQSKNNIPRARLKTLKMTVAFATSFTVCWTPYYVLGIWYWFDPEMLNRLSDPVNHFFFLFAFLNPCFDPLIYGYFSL

SMILES | Ki [nM]
COc1cccc(-c2cn(Cc3c(F)cccc3SC)c(=O)n(C[C@H](N)c3ccccc3)c2=O)c1F | 19
Cc1ccc(-c2cn(Cc3c(F)cccc3C(F)(F)F)c(=O)n(C[C@H](N)c3ccccc3)c2=O)c(Cl)c1 | 2.6
CC(C)Oc1cccc(-c2cn(Cc3c(F)cccc3C(F)(F)F)c(=O)n(C[C@H](N)c3ccccc3)c2=O)c1F | 6.3
COc1cccc(-c2cn(Cc3c(F)cccc3S(=O)(=O)N3CCOCC3)c(=O)n(C[C@H](N)c3ccccc3)c2=O)c1F | 1400
N[C@@H](Cn1c(=O)c(-c2ccc(C(F)(F)F)cc2Cl)cn(Cc2c(F)cccc2C(F)(F)F)c1=O)c1ccccc1 | 200
COc1cccc(-c2cn(Cc3c(F)cccc3Cl)c(=O)n(C[C@H](N)c3ccccc3)c2=O)c1F | 1.4
COc1cccc(-c2cn(Cc3c(F)cccc3F)c(=O)n(C[C@H](N)c3ccccc3)c2=O)c1Cl | 1
CS(=O)(=O)c1cccc(C(F)(F)F)c1Cn1cc(-c2ccccc2Cl)c(=O)n(C[C@H](N)c2ccccc2)c1=O | 3100
N[C@@H](Cn1c(=O)c(-c2ccccc2F)cn(Cc2c(F)cccc2C(F)(F)F)c1=O)c1ccccc1 | 8
COc1cccc(-c2cn(Cc3c(F)cccc3S(=O)(=O)N(C)C)c(=O)n(C[C@H](N)c3ccccc3)c2=O)c1F | 120
N[C@@H](Cn1c(=O)c(-c2ccccc2C(F)(F)F)cn(Cc2c(F)cccc2C(F)(F)F)c1=O)c1ccccc1 | 4
N[C@@H](Cn1c(=O)c(-c2cccc(O)c2F)cn(Cc2c(F)cccc2F)c1=O)c1ccccc1 | 660
COc1cccc(-c2cn(Cc3c(F)cccc3S(=O)(=O)CCO)c(=O)n(C[C@H](N)c3ccccc3)c2=O)c1F | 9.1
N[C@@H](Cn1c(=O)c(-c2cccc(OCC(F)(F)F)c2F)cn(Cc2c(F)cccc2C(F)(F)F)c1=O)c1ccccc1 | 8.2
COc1cccc(-c2cn(Cc3c(F)cccc3S(=O)(=O)C(C)C)c(=O)n(C[C@H](N)c3ccccc3)c2=O)c1F | 30
N[C@@H](Cn1c(=O)c(-c2cccc(O)c2F)cn(Cc2c(F)cccc2C(F)(F)F)c1=O)c1ccccc1 | 18
COc1cccc(-c2cn(Cc3c(F)cccc3C(F)(F)F)c(=O)n(C[C@H](N)c3ccccc3)c2=O)c1Cl | 0.45
CCOc1cccc(-c2cn(Cc3c(F)cccc3C(F)(F)F)c(=O)n(C[C@H](N)c3ccccc3)c2=O)c1F | 1.8
